Test results as given in patent US20240238272A1, “TREATMENT OF ANTIPHOSPHOLIPID SYNDROME USING S-HYDROXYCHLOROQUINE” (Genovate Biotechnology Co. Ltd., priority 2021, published 2024).

Columns and labels:
[1] = biological target: T1, β2-GP1 and antibody binding (Homo sapiens, UniProt P02749); test: Dot blot assay of β2-GP1 and antibody binding, THP-1 total lysate; conditions: 10 mg/mL, mean ± S.E.M., triplicate
T1 construct: THP-1 is a human peripheral blood monocyte that highly expresses β2-GP1; endogenous in cells; host or cells: THP-1 (human monocyte cell line): total lysate in the dot blot, whole cells in the ELISA
T1 sequence (P02749 20-345): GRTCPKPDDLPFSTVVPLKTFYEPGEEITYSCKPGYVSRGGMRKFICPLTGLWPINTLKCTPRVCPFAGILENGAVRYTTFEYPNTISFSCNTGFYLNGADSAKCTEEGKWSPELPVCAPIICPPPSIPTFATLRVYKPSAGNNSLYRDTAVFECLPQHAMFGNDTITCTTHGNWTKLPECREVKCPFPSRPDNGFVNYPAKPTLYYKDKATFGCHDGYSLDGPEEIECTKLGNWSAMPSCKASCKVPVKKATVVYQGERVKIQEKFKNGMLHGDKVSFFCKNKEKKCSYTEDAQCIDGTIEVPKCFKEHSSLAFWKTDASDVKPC
Description: THP-1 is a human peripheral blood monocyte that highly expresses β2-GP1 and is associated with increased APS in patients. Before treating with HCQ, THP-1 cells were fixed in a 3.7% paraformaldehyde solution, blocked in a phosphate-buffered saline (PBS) containing 1% bovine serum albumin (BSA), and incubated with a mouse aPL antibody (A500-006A, Bethyl Laboratories, Montgomery, Texas). Cellular immunofluorescent staining was used to determine β2-GP1 expression.
Separate samples were prepared for a dot blot assay as follows: a THP-1 total lysate was loaded to a polyvinylidene difluoride membrane, blocked with PBS containing 1% BSA, and incubated with mouse anti-β2-GP1 A500-006A, together with S-HCQ, R-HCQ, or racemic HCQ, each at a concentration of 10 mg/mL. A control sample was obtained following the same procedure described above except that no HCQ was added.
(§1) All assays above were performed in triplicate. Reported results are expressed as means±S.E.M. All statistical analyses were performed using a software under the trademark of GraphPad Prism® (Version 8.0. GraphPad Software Inc, San Diego, California). For comparisons between two groups, student's test was used. A p-value<0.05 was considered statistically significant.

[2] = test system: annexin V on THP-1 cell surfaces; test: Restoration of annexin A5 anticoagulant shield on THP-1 cells treated with anti-β2-GP1 IgG; format: cell-based, human; conditions: 0.5 μg/mL HCQ; comparative sample without HCQ = 1
Description: THP-1 cells were first maintained in a RPMI1640 medium (Thermo Fisher Scientific, Waltham, Massachusetts) containing 10% fetal bovine serum, 2 mM L-glutamine, and 50 U/mL penicillin-streptomycin antibiotics. They were then seeded at a density of 8×10^4 cells/well in a 96-well culture plate and were allowed to reach confluence. Subsequently, THP-1 cells were treated with anti-β2-GP1 IgG in the presence of 0.5 μg/mL HCQ. Levels of annexin V on cell surfaces were determined by optical absorbance after the IgG-treated THP-1 cells were rinsed with HBS-CaCl2) solution to remove free annexin V, leaving only annexin V that is attached to the cell surface.
Three samples were prepared each with one of three HCQ (i.e., S-HCQ, R-HCQ, and racemic HCQ) solutions. A comparative sample was obtained following the same procedure described above except that HCQ was not added. A patient serum containing β2-GP1 antibody was used as a control sample.

[3] = test system: thrombosis induced by anti-β2GP1 antibody; test: APS-related thrombosis mice model, femoral vein pinch, clot formation; format: in vivo, C57BL/6 male mice
Description: C57BL/6 male mice at ages of 8-12 weeks (purchased from BioLasco, Taiwan) were used in this study. All procedures were approved by the Institutional Animal Care Committee of Taipei Medical University. Venous thrombosis was induced in mice using an endothelial injury model. […] They were anesthetized 72 hours after the injection. The right femoral vein was exposed and pinched with a pressure of 1500 g/mm^2 to induce formation of a thrombus. […] As such, the anti-β2GP1 antibody was injected to a mouse at 100 AU for all studies below. Following the procedure described above, a mouse (i.e., HCQ-treated mouse) was injected with 100 AU of the anti-β2GP1 antibody from Patient 5 and 2000 μg racemic-HCQ (200 μl at 10 mg/ml). As a control, a group of mice (n=4; APS-induced mice) were injected with only 100 AU of the anti-β2GP1 antibody. After 72 hours, the right femoral vein of each mouse was exposed and pinched with a pressure of 1500 g/mm^2 to induce formation of a thrombus. Thrombosis time (in minute) was recorded. […] Clots were removed from the femoral vein after pinch for 5 minutes.

E-selectin = test: APS-related thrombosis mice model, serum expression level of E-selectin; format: in vivo; conditions: for Inhibition (E-selectin): relative to comparative group; for Thrombosis (E-selectin): serum expression level relative to comparative group
Description: (§2) Venous thrombosis was induced in mice using an endothelial injury model. Mice were intravenously (IV) injected 7.5% FeCl3 (positive control), saline (negative control), or an APS-derived anti-β2GP1 antibody (from Patient 2) at a dosage of 100, 200, or 300 AU (test group). They were anesthetized 72 hours after the injection. The right femoral vein was exposed and pinched with a pressure of 1500 g/mm^2 to induce formation of a thrombus.
(§3) Based on the APS animal model described above, R-HCQ and S-HCQ were administered to mice for reducing thrombosis. Mice were divided into 6 groups, each of which was injected with (1) IgG as a control group, (2) 100 AU of the anti-β2GPI antibody as a comparative group, (3) a combination of 100 AU of the anti-B2GPI antibody and 300 μg of S-HCQ as treatment group 3, (4) a combination of 100 AU of the anti-B2GPI antibody and 200 μg of S-HCQ as treatment group 4, (5) a combination of 100 AU of the anti-B2GPI antibody and 200 μg of R-HCQ as treatment group 5, or (6) a combination of 100 AU of the anti-β2GP1 antibody and 100 μg of R-HCQ as treatment group 6.
(§4) Serum expression levels of E-selectin and VCAM-1, two biomarkers of APS-related thrombosis, were measured. Percentages of inhibition in treatment groups 3-6 were calculated based on the expression levels of E-selectin and VCAM-1 relative to the comparative group. A low expression level of E-selectin or VCAM-1 indicates high inhibition of thrombosis.

VCAM-1 = test: APS-related thrombosis mice model, serum expression level of VCAM-1; format: in vivo; conditions: for Inhibition (VCAM-1): relative to comparative group; for Thrombosis (VCAM-1): serum expression level relative to comparative group
Description: as §2, §3, §4

[4] = test system: APS-related thrombosis (E-selectin and VCAM-1); test: APS-related thrombosis mice model, average of E-selectin and VCAM-1; format: in vivo
Description: as §2, §3, §4

[5] = biological target: T2, β2-GP1 and antibody binding (THP-1 cells) (Homo sapiens, UniProt P02749); test: ELISA assay of β2-GP1-antibody binding to THP-1 membrane; format: cell-based
T2 construct: THP-1 is a human peripheral blood monocyte that highly expresses β2-GP1; endogenous in cells; host or cells: THP-1 (human monocyte cell line): total lysate in the dot blot, whole cells in the ELISA
T2 sequence (P02749 20-345): T1 sequence (P02749 20-345)
Description: Subsequently, an ELISA assay was performed to determine whether S-HCQ or R-HCQ inhibiting binding of β2-GP1-antibody complexes to the THP-1 membrane. THP-1 cells thus treated were resuspended to a density of 3.6×10^5 cells/mL in a medium containing 80% RPMI-1640 (Thermo Fisher Scientific, Waltham, Massachusetts), 20% anti-β2-GP1 immunoglobulin G (“IgG”) (0.2 mg/mL) in HEPES-buffered saline (HBS, pH 7.45), and S-HCQ. Three samples were each prepared from a medium having a different S-HCQ concentration, i.e., 1 μg/mL, 2.5 μg/mL, or 5 μg/mL. A control sample was obtained following the same procedure described above except that no S-HCQ was added. Optical absorbance was measured at 450 nm.
as §1

Structure (SMILES): CCN(CCO)CCCC(C)Nc1ccnc2cc(Cl)ccc12 (racemic) [racemic HCQ, Hydroxychloroquine]
- inhibition at 10000 µg/mL [1]: 80%
- relative level of annexin V [2]: 3.09
- thrombosis time ([3]; 2000 μg with 100 AU anti-β2GP1 antibody, 72 hours after injection, healthy mice 5, APS-induced mice 2): 5 min
- thrombus size ([3]; 2000 μg, clots removed after pinch for 5 minutes, versus mice without HCQ treatment): significantly reduced the thrombus size

Structure (SMILES): CCN(CCO)CCC[C@@H](C)Nc1ccnc2cc(Cl)ccc12 [R-HCQ, (R)-(−)-hydroxychloroquine]
- inhibition of β2-GP1 and antibody binding [1]: 23%
- relative level of annexin V [2]: 2.54
- Inhibition (E-selectin) (E-selectin; 100 μg): 25.2%
- Thrombosis (E-selectin) (E-selectin; 100 μg): 74.8%
- Inhibition (E-selectin) (E-selectin; 200 μg): 30%
- Thrombosis (E-selectin) (E-selectin; 200 μg): 70%
- Inhibition (VCAM-1) (VCAM-1; 100 μg): 16.3%
- Thrombosis (VCAM-1) (VCAM-1; 100 μg): 83.7%
- Inhibition (VCAM-1) (VCAM-1; 200 μg): 23%
- Thrombosis (VCAM-1) (VCAM-1; 200 μg): 75%
- Inhibition Average ([4]; 100 μg): 20.75%
- Thrombosis Average ([4]; 100 μg): 79.25%
- Inhibition Average ([4]; 200 μg): 26.5%
- Thrombosis Average ([4]; 200 μg): 72.5%

Structure (SMILES): CCN(CCO)CCC[C@H](C)Nc1ccnc2cc(Cl)ccc12 [S-HCQ, S-(+)-hydroxychloroquine]
- inhibition of β2-GP1 and antibody binding [1]: 97%
- inhibition rate of β2-GP1 and antibody binding ([5]; 1 μg/mL): 25%
- inhibition rate of β2-GP1 and antibody binding ([5]; 2.5 μg/mL): 60%
- inhibition rate of β2-GP1 and antibody binding ([5]; 5 μg/mL): 90%
- relative level of annexin V [2]: 3.45
- Inhibition (E-selectin) (E-selectin; 200 μg): 53.8%
- Thrombosis (E-selectin) (E-selectin; 200 μg): 46.2%
- Inhibition (E-selectin) (E-selectin; 300 μg): 59.4%
- Thrombosis (E-selectin) (E-selectin; 300 μg): 40.6%
- Inhibition (VCAM-1) (VCAM-1; 200 μg): 49%
- Thrombosis (VCAM-1) (VCAM-1; 200 μg): 50.9%
- Inhibition (VCAM-1) (VCAM-1; 300 μg): 52%
- Thrombosis (VCAM-1) (VCAM-1; 300 μg): 47.8%
- Inhibition Average ([4]; 200 μg): 51.4%
- Thrombosis Average ([4]; 200 μg): 48.55%
- Inhibition Average ([4]; 300 μg): 55.7%
- Thrombosis Average ([4]; 300 μg): 44.2%
